Assay results from patent US20120258938A1, “Enzymatic Production or Chemical Synthesis and Uses for 5,7-Dienes and UVB Conversion Products Thereof” (priority 2008, published 2012).

Tests used:
[1] = system: Human dermal fibroblasts; assay: TGF-b1 induced collagen protein production by dermal fibroblasts; type: cell-based; settings: collagenase sensitive protein; for Collagen CPM/Well (mean ± SEM) × 10^−5 FB: hrTGF-b1 5 ng/ml, secosteroids at 10^−10M, 3[H]-proline
Protocol: Human dermal fibroblasts grown from explant skin cultures at less than 10 subpassages were plated at 5×10^4 cells per well in 24 well Costar tissue culture plates and were grown to confluency. Complete MEM was then changed to serum free Complete MEM without non-essential amino acids. After 24 hours, culture medium was changed (450 μl/well) to the same and secosteroids listed in Table 14 were added in 10 μl absolute alcohol (ETOH) to a final concentration of 10^−9 and M, 3 replicate wells each. Vehicle control wells (n=6) contained 10 μl (ETOH). After 2 hour pre-incubation, hr TGF-b1 (R and D systems) was added to each well except ETOH wells at a final concentration of 5 ng/ml. After 48 hours of culture, plate wells were paused with 1μ Cl ^3[H]-proline. After 24 hours, culture supernatants were harvested and collagenase sensitive protein was determined as previously described (44).

[2] = system: human dermal fibroblast line; assay: TGF-b1 induced hyaluronan synthesis by dermal fibroblasts; type: cell-based; settings: hrTGF-b1 5 ng/ml, secosteroids at 10^−10M
From the text: There were found no significant differences in fibroblast numbers per well and no significant differences in trypan blue exclusion between control wells vs those with secosteroids range 95-100% (data not shown).

[3] = system: SK Mel 188 human melanoma cells; assay: Soft agar colony formation, SKMEL 188 melanoma; type: cell-based; settings: for colony formation in soft agar versus vehicle control: SKMEL 188, 10 nM
Protocol: Growth and survival of prostate cancer cells (PC3) and melanoma cells SKMEL 188 and AbC1 was determined by following their ability to form colonies in soft agar. Cells growing in monolayer culture were trypsinized and resuspended (1,000 cells/well) in 0.25 ml medium containing 0.4% agarose and 5% charcoal stripped serum (HyClone).
Cell suspensions were added to 0.8% agar layer in 24 well plates. […] Each condition was tested in quadruplicate. An ethanol solvent control (amount of ethanol equivalent to test) as well as a media-only control was included in the assay. Cells were allowed to grow at 37° with 5% CO2 over two weeks with secosteroids in fresh media (100 μL) being added after every 72 h. Soft agar colonies were scored and stained with 0.5 mg/ml MTT reagent (Promega), 500 μL/well after two weeks. Colonies were then counted under the microscope and number of units was calculated as number of colonies formed divided by the number of cells seeded×100.

[4] = system: HaCaT keratinocytes; assay: [3H]-thymidine DNA synthesis in HaCaT keratinocytes; type: cell-based, human; settings: HaCaT
Protocol: HaCaT keratinocytes were plated in 96-well plates at the density of 10,000 cells/well in DMEM (Cellgro, Herndon Va.) containing 5% charcoal treated fetal bovine serum (Hyclone, Logan, Utah), 1% antibiotic solution (PSA, Sigma, St. Louis, […].). Next day, media were changed and vehicle (ethanol) or secosteroids added. Cells were incubated with compounds for 48 hours. [^3H]-thymidine (Amersham Biosciences, Picataway, N.Y.) was added to the final concentration of 1 μCi/mL medium for last 12 hours of incubation. Media were then discarded, cells detached with trypsin and harvested on a glass fiber filter (Packard, Meriden, Calif.). Radioactivity was measured with a beta counter (Direct Beta-Counter Matrix 9600; Packard).
To measure DNA synthesis, keratinocytes, melanoma or prostate cancer cells were plated in 96-well plates. After overnight incubation tested compounds were added to the medium to achieve final concentrations 10^−7-10^−10 [M]. 100 μl of medium per well containing vitamin D3 compound was added to the cells. After 36 hours of incubation [3H]-thymidine (specific activity 88.0 Ci/mmol; Amersham Biosciences, Picataway, N.Y., USA) was added at 1 μCi/mL medium. After 12 hours, media were discarded, cells detached with trypsin and harvested on a glass fiber filter (Packard, Meriden, Calif., USA). 3H-radioactivity was measured with a beta counter (Direct Beta-Counter Matrix 9600; Packard).
HaCaT keratinocytes were plated out in 24-well plates, 50,000 cells/well. […] After 4 h media were discarded, cells washed with cold phosphate-buffered saline and incubated in 10% trichloroacetic acid for 30 min. Cells were washed again with phosphate-buffered saline, 100 μl 1.0 M NaOH was added to each well and plates incubated for 30 min at 30° C. The supernatant was collected and the ^3H-radioactivity measured by scintillation counting using a Direct Beta-Counter Matrix 9600 (Packard). The [^3H]-thymidine incorporation into DNA was measured separately for each well and the results entered into the calculation as the mean of 6 wells for each condition in a series of six experiments (n=36). Data were analyzed with GraphPad Prizm Version 4.0 (GraphPad Software Inc., San Diego, Calif., USA) using t tests. Differences were considered significant when p<0.05.

[5] = target: T1, cytochrome P450scc (Bos taurus, UniProt P00189); assay: Metabolism by cytochrome P450scc in cyclodextrin
T1 sequence (P00189 40-520): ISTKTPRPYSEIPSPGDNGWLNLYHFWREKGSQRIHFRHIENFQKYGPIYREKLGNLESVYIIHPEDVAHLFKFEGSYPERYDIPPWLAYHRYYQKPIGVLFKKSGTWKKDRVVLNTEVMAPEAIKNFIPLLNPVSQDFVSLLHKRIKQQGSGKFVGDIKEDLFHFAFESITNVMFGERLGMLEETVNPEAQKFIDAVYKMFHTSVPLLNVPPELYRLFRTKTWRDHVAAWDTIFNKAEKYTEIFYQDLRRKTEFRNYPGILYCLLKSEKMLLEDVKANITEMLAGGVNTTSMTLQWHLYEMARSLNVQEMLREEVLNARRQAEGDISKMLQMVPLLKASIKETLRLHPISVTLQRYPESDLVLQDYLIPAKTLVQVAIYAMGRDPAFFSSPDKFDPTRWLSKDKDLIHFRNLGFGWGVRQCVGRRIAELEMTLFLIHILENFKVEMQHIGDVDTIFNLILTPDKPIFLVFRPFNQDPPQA
Protocol: Adrenodoxin was expressed in Escherichia coli and purified as described before (41). […] Metabolites were analysed using a Perkin Elmer HPLC equipped with a C18 column (Brownlee Aquapore, 22 cm×4.6 mm, particle size 7 μm).

CC(=O)[C@H]1CC[C@H]2C3=CC=C4C[C@@H](O)CC[C@]4(C)[C@H]3CC[C@]12C [compound 1, 3β-hydroxypregna-5,7-dien-20-one]
Collagen CPM/Well (mean ± SEM) × 10^−5 FB [1]: 292 ± 31 CPM/Well × 10^−5 FB | Hyaluronan CPM/Well (mean ± SEM) × 10^−5 FB [2]: 230 ± 34 CPM/Well × 10^−5 FB

C=C1CCC(O)CC1=CC=C1CCCC2(C)C1CCC2C(C)(O)CCCC(C)CO (stereo not drawn) [20,26(OH)2D3, (5Z,7E)-9,10-secocholesta-5,7,10(19)-triene-3β,20,26-triol]
colony formation in soft agar versus vehicle control [3]: greatly inhibited colony formation

C=C1C(=CC=C2CCCC3(C)C2CCC3C(C)(O)CCC(O)C(C)C)CC(O)CC1O (stereo not drawn) [1,20,24(OH)2D3, (5Z,7E)-9,10-secocholesta-5,7,10(19)-triene-1α,3β,20,24-tetrol]
colony formation in soft agar versus vehicle control [3]: greatly inhibited colony formation

C=C1CCC(O)CC1=CC=C1CCCC2(C)C1CCC2C(C)(O)CCCC(C)(C)O (stereo not drawn) [20,25(OH)2D3, (5Z,7E)-9,10-secocholesta-5,7,10(19)-triene-3β,20,25-triol]
colony formation in soft agar versus vehicle control [3]: greatly inhibited colony formation

C=C1CCC(O)CC1=CC=C1CCCC2(C)C1CCC2C(C)(O)CCC(O)C(C)C (stereo not drawn) [20,24(OH)2D3, (5Z,7E)-9,10-secocholesta-5,7,10(19)-triene-3β,20,24-triol]
colony formation in soft agar versus vehicle control [3]: greatly inhibited colony formation

CC(O)C1(O)CCC2C3=CC=C4CC(O)CCC4(C)C3CCC21C (stereo not shown) [17,20 S(OH)27DHP]
Collagen CPM/Well (mean ± SEM) × 10^−5 FB [1]: 213 ± 17 CPM/Well × 10^−5 FB | Hyaluronan CPM/Well (mean ± SEM) × 10^−5 FB [2]: 227 ± 53 CPM/Well × 10^−5 FB

C[C@]12CC[C@H]3C(=CC=C4C[C@@H](O)CC[C@@]43C)[C@@H]1CC[C@@H]2C(=O)O [17-COOH, (5Z,7E)-3β-hydroxy-androsta-5,7-diene-17β-carboxylic acid]
DNA synthesis ([4]; 72 hrs, 0.01-100 nM): DNA synthesis was inhibited at all concentrations

C=C1/C(=C\C=C2/CCC[C@]3(C)[C@@H]([C@H](C)CCCC(C)C)CC[C@@H]23)C[C@@H](O)C[C@@H]1O [1α-hydroxycholecalciferol, (5Z,7E)-9,10-secocholesta-5,7,10(19)-triene-1α,3β-diol]
Km [5]: 41 ± 6 µM | kcat ([5]; substrate in 0.45% cyclodextrin): 1.3±0.1 mol/min/mol P450scc

1,25 (OH)2 D3
Collagen CPM/Well (mean ± SEM) × 10^−5 FB [1]: 310 ± 100 CPM/Well × 10^−5 FB | Hyaluronan CPM/Well (mean ± SEM) × 10^−5 FB [2]: 297 ± 18 CPM/Well × 10^−5 FB

CC(O)C1(O)CCC2C3=CC=C4CC(O)CCC4(C)C3CCC21C (stereo not shown) [17,20 R(OH)27DHP]
Collagen CPM/Well (mean ± SEM) × 10^−5 FB [1]: 173 ± 11 CPM/Well × 10^−5 FB | Hyaluronan CPM/Well (mean ± SEM) × 10^−5 FB [2]: 607 ± 127 CPM/Well × 10^−5 FB

CC(O)C1(O)CCC2C3=CC=C4CC(O)CCC4(C)C3CCC21C (stereo not shown) [17,20(OH)27DHP]
TGF-b1 induced collagen protein production ([1]; [3H]-proline): inhibited TGF-b1 induced collagen protein production

C=C1CCC(O)CC1=CC=C1CCCC2(C)C1CCC2(O)C(C)(O)CC(O)CC(C)C (stereo not drawn) [17α,20,23-trihydroxycholecalciferol, (5Z,7E)-9,10-secocholesta-5,7,10(19)-triene-3β,17α,20,23-tetrol]
keratinocyte proliferation compared with 1α,25-dihydroxycholecalciferol ([4]; 48 h): inhibit keratinocyte proliferation more potently than the control compound

C=C1C(=CC=C2CCCC3(C)C2CCC3C(C)(O)CCCC(C)(C)O)CC(O)CC1O (stereo not shown) [1,20,25(OH)2D3, 1,20,25-trihydroxycholecalciferol]
colony formation in soft agar versus vehicle control [3]: greatly inhibited colony formation

(5Z,7E)-9,10-secoandrosta-5,7,10(19)-trien-3β-ol [aD3]
colony formation on soft agar ([3]; SKMEL-188, dose dependent): suppress colony formation on soft agar
